From the NIST ThermoML archive (doi:10.1021/je060025z)
Numbers after ± are expanded uncertainties.

Assays:
[1] = 101.33 kPa, Liquid, Vibrating tube method
[2] = refractive index (Na D-line) (dimensionless); conditions: 101.33 kPa, Liquid, Standard Abbe refractometry

| Compound | mass density ([1]; 293.15 K) [kg/m3] | refractive index ([2]; 293.15 K) | also measured |
| --- | --- | --- | --- |
| COC(C)(C)C [2-methoxy-2-methylpropane] | – | – | mass density ([1]; 298.15 K): 734.7 ± 2 kg/m3; refractive index ([2]; 298.15 K): 1.3664 ± 0.0011 |
| CC(=O)C(C)C [3-methyl-2-butanone] | 804.8 ± 2.1 | 1.3884 ± 0.0011 | – |
| CC(C)CCO [3-methylbutan-1-ol] | 808.4 ± 2.1 | 1.4075 ± 0.0011 | – |
| CCCC(=O)CCC [4-heptanone] | 817.6 ± 2.2 | 1.4068 ± 0.0011 | – |
| CC(=O)CC(C)C [4-methylpentan-2-one] | – | 1.3958 ± 0.0011 | mass density ([1]; 298.15 K): 796.1 ± 2.1 kg/m3 |
| CCCCCCCC/C=C\CCCCCCCCO [(Z)-9-octadecen-1-ol] | 849 ± 2.3 | 1.4601 ± 0.0011 | – |
| CCCC(=O)O [butanoic acid] | – | 1.3982 ± 0.0011 | mass density ([1]; 298.15 K): 952.3 ± 2.5 kg/m3 |
| CCC(C)=O [butanone] | – | 1.3793 ± 0.0011 | mass density ([1]; 298.15 K): 798.2 ± 2.1 kg/m3 |
| CC(=O)OC1CCCCC1 [cyclohexyl ethanoate] | 968.4 ± 2.6 | 1.4421 ± 0.0011 | – |
| CCCCCCCCCCO [decan-1-ol] | 829.6 ± 2.2 | 1.4374 ± 0.0011 | – |
| CCCCOC(=O)c1ccccc1C(=O)OCCCC [dibutyl phthalate] | 1047.1 ± 2.8 | 1.4909 ± 0.0011 | – |
| COC(=O)c1ccccc1C(=O)OC [dimethyl 1,2-benzenedicarboxylate] | 1190.4 ± 3.2 | 1.5135 ± 0.0011 | – |
| CCCCCCCCCCCCO [dodecan-1-ol] | – | – | mass density ([1]; 297.15 K): 831.1 ± 2.2 kg/m3 |
| CCOC(C)=O [ethyl acetate] | 900.1 ± 2.4 | 1.372 ± 0.0011 | – |
| CCCCCC [hexane] | – | – | mass density ([1]; 298.15 K): 660.4 ± 1.8 kg/m3; refractive index ([2]; 298.15 K): 1.3729 ± 0.0011 |
| CCCCCCCCCO [nonan-1-ol] | 828.5 ± 2.2 | 1.4327 ± 0.0011 | – |
| Cc1ccccc1 [toluene] | 866.7 ± 2.3 | 1.496 ± 0.0011 | – |
| CCCCCCCCN(CCCCCCCC)CCCCCCCC [trioctylamine] | 810.7 ± 2.2 | – | refractive index ([2]; 292.15 K): 1.4505 ± 0.0011 |
| O [water] | 999.9 ± 2.7 | 1.3324 ± 0.0011 | – |
